In ChEMBL document CHEMBL1141196, “Grafting aminocyclopentane carboxylic acids onto the RGD tripeptide sequence generates low nanomolar alphaVbeta3/alphaVbeta5 integrin dual binders” (J Med Chem, 2005):

Tests used:
Integrin alpha-V/beta-5 = Integrin alpha-V/beta-5 (Homo sapiens, UniProt P06756+P18084); experiment: Displacement of [125I]-echistatin from alpha-v-beta-5 integrin receptor; assay type: protein-complex assay
Integrin alpha-V/beta-3 = Integrin alpha-V/beta-3 (Homo sapiens, UniProt P05106+P06756); experiment: Displacement of [125I]-echistatin from alphavbeta3 integrin receptor; assay type: protein-complex assay
Sequence of Integrin alpha-V/beta-3 (P05106 27-788 limits assumed): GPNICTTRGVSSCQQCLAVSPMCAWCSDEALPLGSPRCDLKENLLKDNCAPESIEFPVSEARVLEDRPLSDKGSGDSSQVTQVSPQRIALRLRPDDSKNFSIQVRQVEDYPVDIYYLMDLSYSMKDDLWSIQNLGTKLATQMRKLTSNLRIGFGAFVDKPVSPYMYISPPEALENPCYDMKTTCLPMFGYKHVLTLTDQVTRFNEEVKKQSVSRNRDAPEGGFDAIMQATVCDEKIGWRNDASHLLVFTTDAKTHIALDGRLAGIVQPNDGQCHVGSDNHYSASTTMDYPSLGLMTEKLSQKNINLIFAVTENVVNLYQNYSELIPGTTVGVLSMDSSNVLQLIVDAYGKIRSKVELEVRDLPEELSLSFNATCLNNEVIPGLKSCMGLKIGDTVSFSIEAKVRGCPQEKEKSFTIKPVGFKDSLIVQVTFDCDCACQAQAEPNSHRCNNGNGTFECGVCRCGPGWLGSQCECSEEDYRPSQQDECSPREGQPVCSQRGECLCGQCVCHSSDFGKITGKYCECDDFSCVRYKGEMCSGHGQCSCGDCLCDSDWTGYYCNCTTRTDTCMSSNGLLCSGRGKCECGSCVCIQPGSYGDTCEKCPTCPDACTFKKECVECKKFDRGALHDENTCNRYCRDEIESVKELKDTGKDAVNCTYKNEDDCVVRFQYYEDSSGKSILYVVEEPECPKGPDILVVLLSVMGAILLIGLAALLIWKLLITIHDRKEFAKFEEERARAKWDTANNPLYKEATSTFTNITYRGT
Sequence of Integrin alpha-V/beta-3 (P06756 31-889 limits assumed): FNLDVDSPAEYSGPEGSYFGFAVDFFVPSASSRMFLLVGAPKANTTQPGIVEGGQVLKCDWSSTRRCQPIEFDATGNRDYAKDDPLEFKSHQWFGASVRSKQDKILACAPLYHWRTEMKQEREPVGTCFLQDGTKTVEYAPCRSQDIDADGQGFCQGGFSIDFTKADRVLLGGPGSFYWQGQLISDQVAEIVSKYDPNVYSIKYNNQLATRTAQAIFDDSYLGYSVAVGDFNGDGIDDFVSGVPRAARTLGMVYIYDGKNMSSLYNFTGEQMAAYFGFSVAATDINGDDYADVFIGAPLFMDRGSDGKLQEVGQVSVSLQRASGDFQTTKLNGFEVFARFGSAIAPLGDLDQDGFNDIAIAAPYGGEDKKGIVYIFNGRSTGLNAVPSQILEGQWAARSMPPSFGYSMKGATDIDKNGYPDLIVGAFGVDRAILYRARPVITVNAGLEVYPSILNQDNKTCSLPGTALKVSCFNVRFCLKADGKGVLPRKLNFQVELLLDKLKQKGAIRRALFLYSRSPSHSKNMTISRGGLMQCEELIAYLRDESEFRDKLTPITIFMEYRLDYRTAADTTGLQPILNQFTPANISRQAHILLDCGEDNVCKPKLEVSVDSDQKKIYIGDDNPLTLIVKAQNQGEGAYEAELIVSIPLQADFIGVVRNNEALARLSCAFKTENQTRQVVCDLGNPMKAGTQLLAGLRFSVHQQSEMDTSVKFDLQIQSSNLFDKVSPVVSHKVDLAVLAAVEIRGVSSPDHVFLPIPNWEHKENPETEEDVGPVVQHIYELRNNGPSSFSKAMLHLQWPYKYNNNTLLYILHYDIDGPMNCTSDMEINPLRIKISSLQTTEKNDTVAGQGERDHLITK
Sequence of Integrin alpha-V/beta-3 (P06756 891-1048 limits assumed): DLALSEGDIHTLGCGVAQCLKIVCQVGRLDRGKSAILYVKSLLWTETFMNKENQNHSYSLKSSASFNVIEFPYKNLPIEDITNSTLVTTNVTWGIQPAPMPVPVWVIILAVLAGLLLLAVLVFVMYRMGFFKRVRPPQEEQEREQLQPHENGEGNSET

Sequence of Integrin alpha-V/beta-5 (P06756 31-889 limits assumed): as the sequence (P06756 31-889 limits assumed) above
Sequence of Integrin alpha-V/beta-5 (P06756 891-1048 limits assumed): as the sequence (P06756 891-1048 limits assumed) above
Sequence of Integrin alpha-V/beta-5 (P18084 24-799 limits assumed): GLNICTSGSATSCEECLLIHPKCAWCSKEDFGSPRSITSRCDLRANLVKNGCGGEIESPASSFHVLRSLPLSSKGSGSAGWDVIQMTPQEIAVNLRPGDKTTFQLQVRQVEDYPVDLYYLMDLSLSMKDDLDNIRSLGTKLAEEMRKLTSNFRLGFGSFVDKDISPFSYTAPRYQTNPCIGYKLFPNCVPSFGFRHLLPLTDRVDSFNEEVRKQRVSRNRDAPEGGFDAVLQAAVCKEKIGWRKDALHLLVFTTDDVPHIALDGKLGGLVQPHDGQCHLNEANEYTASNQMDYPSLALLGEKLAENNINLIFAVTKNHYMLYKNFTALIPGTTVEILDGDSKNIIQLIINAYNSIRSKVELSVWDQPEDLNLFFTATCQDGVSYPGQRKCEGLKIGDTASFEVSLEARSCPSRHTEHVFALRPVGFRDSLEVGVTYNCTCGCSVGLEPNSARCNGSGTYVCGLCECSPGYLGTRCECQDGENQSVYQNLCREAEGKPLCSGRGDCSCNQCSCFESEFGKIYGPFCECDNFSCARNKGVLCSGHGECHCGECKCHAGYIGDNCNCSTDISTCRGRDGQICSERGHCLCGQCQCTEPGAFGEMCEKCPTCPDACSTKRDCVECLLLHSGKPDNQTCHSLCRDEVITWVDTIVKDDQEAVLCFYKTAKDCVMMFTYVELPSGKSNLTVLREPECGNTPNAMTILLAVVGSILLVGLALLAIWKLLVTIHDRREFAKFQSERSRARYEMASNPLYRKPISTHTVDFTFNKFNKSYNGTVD

| IC50 (Integrin alpha-V/beta-5) [µM] | IC50 (Integrin alpha-V/beta-3) [µM] | Compound |
| --- | --- | --- |
| 0.00059 | 0.0015 | N=C(N)NCCC[C@@H]1NC(=O)[C@@H]2CC[C@H](C2)NC(=O)[C@H](CC(=O)O)NC(=O)CNC1=O |
| 0.0296 | 0.0356 | N=C(N)NCCC[C@@H]1NC(=O)[C@H]2C[C@H](NC(=O)[C@H](CC(=O)O)NC(=O)CNC1=O)[C@@H](O)C2 |
| 0.125 | 0.0447 | N=C(N)NCCC[C@@H]1NC(=O)[C@@H]2C[C@H](NC(=O)[C@H](CC(=O)O)NC(=O)CNC1=O)[C@@H](O)[C@@H]2O |
| 0.411 | 0.133 | N=C(N)NCCC[C@@H]1NC(=O)[C@H]2C[C@@H](NC(=O)[C@H](CC(=O)O)NC(=O)CNC1=O)[C@H](O)[C@H]2O |
| 0.00116 | 0.0014 | NC(N)=NCCC[C@@H]1NC(=O)[C@H]2CC[C@@H]3CCC[C@H](NC(=O)[C@H](CC(=O)O)NC(=O)CNC1=O)C(=O)N32 |
| 0.166 | 0.0514 | N=C(N)NCCC[C@@H]1NC(=O)[C@@H]2C[C@H](NC(=O)[C@H](CC(=O)O)NC(=O)CNC1=O)[C@@H](O)[C@H]2O |
| 1.3 | 0.713 | N=C(N)NCCC[C@@H]1NC(=O)[C@H]2C[C@@H](NC(=O)[C@H](CC(=O)O)NC(=O)CNC1=O)[C@H](O)[C@@H]2O |
| 0.0131 | 0.0072 | N=C(N)NCCC[C@@H]1NC(=O)[C@@H]2C[C@@H](O)[C@@H](C2)NC(=O)[C@H](CC(=O)O)NC(=O)CNC1=O |
| 0.00343 | 0.0046 | N=C(N)NCCC[C@@H]1NC(=O)[C@H]2CC[C@H](C2)NC(=O)[C@H](CC(=O)O)NC(=O)CNC1=O |
| 0.00456 | 0.0056 | N=C(N)NCCC[C@@H]1NC(=O)[C@@H]2C[C@H](NC(=O)[C@H](CC(=O)O)NC(=O)CNC1=O)[C@@H](O)C2 |
| 0.00656 | 0.0077 | N=C(N)NCCC[C@@H]1NC(=O)[C@@H]2CC[C@@H](C2)NC(=O)[C@H](CC(=O)O)NC(=O)CNC1=O |
| 0.026 | 0.00993 | N=C(N)NCCC[C@@H]1NC(=O)[C@H]2CC[C@@H](C2)NC(=O)[C@H](CC(=O)O)NC(=O)CNC1=O |
